This note sets out measurements from patent US7863446B2, “Heterocycles” (Orchid Research Laboratories Limited, priority 2006, dated 2011).

In data set [1] the target is purified recombinant COX-1 (Homo sapiens, UniProt P23219). Put plainly: COX-1 enzyme based assay. It counts as biochemical. The settings on record: NA = No activity, read-out: % Inhibition in rEnzyme Assay COX-1. Put shortly: (§1)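 Purified recombinant enzyme converted arachidonic acid to PGH2 at 37° C with or without test compound; stopped with 1M HCl after 2 minutes. PGH2 reduced by SnCl2 to PGF2α, quantified by enzyme immunoassay; inhibition inferred from reduced prostanoid.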
Sequence of purified recombinant COX-1 (P23219 24-599): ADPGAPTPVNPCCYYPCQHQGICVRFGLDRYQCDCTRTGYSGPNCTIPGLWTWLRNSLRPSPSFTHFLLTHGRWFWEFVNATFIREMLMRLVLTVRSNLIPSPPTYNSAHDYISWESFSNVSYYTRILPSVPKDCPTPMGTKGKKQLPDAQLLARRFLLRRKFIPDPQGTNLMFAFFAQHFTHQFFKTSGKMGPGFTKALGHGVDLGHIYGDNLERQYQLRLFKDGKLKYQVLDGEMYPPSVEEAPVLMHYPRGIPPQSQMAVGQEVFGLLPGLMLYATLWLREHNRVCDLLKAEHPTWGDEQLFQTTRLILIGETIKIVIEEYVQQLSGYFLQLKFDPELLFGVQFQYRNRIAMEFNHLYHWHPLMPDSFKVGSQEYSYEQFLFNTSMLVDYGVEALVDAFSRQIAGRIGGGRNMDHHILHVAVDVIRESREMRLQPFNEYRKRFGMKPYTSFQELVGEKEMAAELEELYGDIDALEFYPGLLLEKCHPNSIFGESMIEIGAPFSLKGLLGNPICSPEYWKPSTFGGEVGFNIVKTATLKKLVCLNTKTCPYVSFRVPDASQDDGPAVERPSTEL

Data set [2] addresses T1, purified recombinant COX-2 (Homo sapiens, UniProt P35354).
T1 sequence (P35354 18-604): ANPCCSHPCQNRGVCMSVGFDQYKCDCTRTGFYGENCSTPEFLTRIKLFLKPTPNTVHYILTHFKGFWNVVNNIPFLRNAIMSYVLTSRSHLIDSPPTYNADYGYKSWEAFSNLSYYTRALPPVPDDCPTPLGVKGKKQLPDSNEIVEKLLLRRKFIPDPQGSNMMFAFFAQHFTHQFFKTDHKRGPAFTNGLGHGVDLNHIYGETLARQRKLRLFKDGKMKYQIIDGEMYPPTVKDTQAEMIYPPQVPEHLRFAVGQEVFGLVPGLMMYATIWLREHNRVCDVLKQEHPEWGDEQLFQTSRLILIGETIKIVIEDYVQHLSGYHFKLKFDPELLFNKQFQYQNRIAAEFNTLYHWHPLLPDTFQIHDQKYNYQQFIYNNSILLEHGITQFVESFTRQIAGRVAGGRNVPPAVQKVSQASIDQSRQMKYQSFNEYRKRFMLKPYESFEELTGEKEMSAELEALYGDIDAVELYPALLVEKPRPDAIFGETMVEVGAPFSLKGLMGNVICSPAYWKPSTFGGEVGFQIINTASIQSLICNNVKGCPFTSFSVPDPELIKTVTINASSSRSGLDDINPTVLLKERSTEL
As to the kind of experiment: COX-2 enzyme based assay. Type of data set: biochemical. The settings on record: NA = No activity, read-out: % Inhibition in rEnzyme Assay COX-2. Put shortly:
as §1

Data set [3] concerns DU-145. As to the kind of experiment: Anti-cancer screen (MTT), DU-145. Type of data set: cell-based. The note with it: Homo sapiens, DU-145, 48 hours.
In data set [4] the test system is HCT-116. Put plainly: Anti-cancer screen (MTT), HCT-116. Type of data set: cell-based. The note with it: Homo sapiens, HCT-116, 48 hours. The procedure:
(§2) Experimental drugs are screened for anti-cancer activity in three cell lines for their GI50, TG1 and LC50 values (using 5 concentrations for each compound). The cell lines are maintained in DMEM containing 10% fetal bovine serum. 96 well microtiter plates are inoculated with cells in […] for 24 hours at 37° C., 5% CO2, 95% air and 100% relative humidity. 5000 HCT116 cells/well, 5000 NCIH460 cells/well, 10000 U251 cells/well and 5000 MDAMB231 cells/well are plated. A separate plate with these cell lines is also inoculated to determine cell viability before the addition of the compounds (T0).
(§3) Addition of Experimental Drugs
(§4) Following 24-hour incubation, experimental drugs are added to the 96 well plates. Each plate contains one of the above cell lines and the following in triplicate: 5 different concentrations (0.01, 0.1, 1, 10 and 100 μM) of 4 different compounds, appropriate dilutions of a cytotoxic standard and control (untreated) wells. Compounds are dissolved in dimethylsulfoxide (DMSO) to make 20 mM stock solutions, on the day of drug addition and frozen at −20° C. Serial dilutions of these 20 mM stock solutions are made in complete growth medium such that 100 μL of these drug solutions in medium, of final concentrations equaling 0.01, 0.1, 1, 10 and 100 μM can be added to the cells in triplicate. Standard drugs whose anti-cancer activity has been well documented and which are regularly used are doxorubicin and SAHA.
(§5) Cells are incubated with compounds for 48 hours followed by the addition of 10 μL 3-(4,5-Dimethyl-2-thiazolyl)-2,5-diphenyl-2H-tetrazolium (MTT) solution per well and a subsequent incubation at 37° C., 5% CO2, 95% air and 100% relative humidity, protected from light. After 4 hours, well contents are aspirated carefully followed by addition of 150 μL DMSO per well. Plates are agitated to ensure solution of the formazan crystals in DMSO and absorbance read at 570 nm.
(§6) Calculation of GI50, TGI and LC50
(§7) Percent growth is calculated for each compound's concentration relative to the control and zero measurement wells (T0; viability right before compound addition).
(§8) If a test well's O.D. value is greater than the T0 measurement for that cell line % Growth=(test−zero)/(control−zero)×100
(§9) If a test well's O.D. value is lower than the T0 measurement for that cell line, then % Growth=(test−zero)/zero×100 Plotting % growth versus experimental drug concentration, GI50 is the concentration required to decrease % growth by 50%; TGI is the concentration required to decrease % growth by 100% and LC50 is the concentration required to decrease % growth by 150%.

Data set [5] has as its system NCI-H460. As to the kind of experiment: Anti-cancer screen (MTT), NCI-H460. It counts as cell-based. The note with it: Homo sapiens, NCI-H460, 48 hours. The procedure:
as §2, §3, §4, §5, §6, §7, §8, §9

The test system of data set [6] is TNF-α. Put plainly: In vitro measurement of TNF-α in human PBMC (LPS stimulated). It counts as cell-based. The settings on record: for inhibition at 1 µM: NA = No activity, read-out: TNF-α Inhibition (%) at Conc. (1 μM); for inhibition at 10 µM: read-out: TNF-α Inhibition (%) at Conc. (10 μM). In short, it runs like this:
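Healthy-volunteer PBMC (0.5 million/well) in RPMI were pre-incubated with compound 15 min at 37 °C. They were then stimulated with E. coli B4 LPS 1 μg/ml for 18 h at 37 °C, 5% CO2. TNF-α in culture medium was measured by ELISA.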

Data set [7] has as its system Male wistar rats. As to the kind of experiment: Carrageenan induced paw edema test in rat. The note with it: oral, 3 hours after carrageenan. Type of data set: in vivo. The procedure: Carrageenan Induced Paw Edema Test in Rat
The carrageenan paw edema test was performed as described by Winter et al (Proc. Soc. Exp. Biol. Med, 111, 544, 1962). Male wistar rats were selected with body weights equivalent within each group. The rats were fasted for 18 hours with free access to water. The rats were dosed orally with the test compound suspended in the vehicle containing 0.25% carboxymethylcellulose and 0.5% Tween 80. The control rats were administered with vehicle alone. After an hour, the rats were injected with 0.1 ml of 1% Carrageenan solution in 0.9% saline into the sub-plantar surface of the right hind paw. Paw volume was measured using digital plethysmograph before and after 3 hours of carrageenan injection. The average of foot swelling in drug treated animals was compared with that of the control animals. Anti-inflammatory activity was expressed as the percentage inhibition of edema compared with control group [Arzneim-Forsch/Drug Res., 43 (I), 1, 44-50, 1993; Representative results of edema inhibition are shown in the Table VI.

Data set [8] has as its system Animals (male wistar). Put plainly: Ulcerogenic potential. It counts as in vivo. The settings on record: oral, 4 hours after administration. The procedure: In order to evaluate the compound's role on the ulcer formation, the animals were sacrificed and the stomach was taken out and flushed with 1% formalin. Animals (male wistar. 200 g) were fasted for 18 hours with free access to water and the test compounds were suspended in 0.5% Tween 80 and 0.25% CMC (carboxymethylcellulose) solution to make a uniform suspension. After 4 hours of oral administration of test compounds, all the animals were sacrificed by cervical dislocation. The stomach was dissected carefully and filled up with a sterile saline solution and embedded in 6% formalin solution. […] The test compound treated groups were compared with the vehicle treated groups. […]

In data set [9] the test system is TNF-α. Put plainly: LPS induced sepsis for measurement of TNF-α inhibition in mice. The settings on record: Mus musculus; TNF alpha inhibition in mice sepsis model. It counts as in vivo. The protocol:
LPS Induced Sepsis for Measurement of TNF-α Inhibition in Mice
The LPS induced sepsis model in mice was performed as described by Les sekut et al (J Lab Clin Med 1994; 124:813-20). Female Swiss albino mice were selected and the body weights were equivalent within each group. The mice were fasted for 20 hours with free access to water. The mice were dosed orally with the test compound suspended in vehicle containing 0.5% Tween 80 in 0.25% Carboxy-methylcellulose sodium salt. The control mice were administered the vehicle alone. After 30 minutes of oral dosing, mice were injected with 500 μg of Lipopolysaccharide (Escherichia coli, LPS: B4 from Siga) in phosphate buffer saline solution into the intraperitoneal cavity of the mice. After 90 minutes of LPS administration mice were bled via retro-orbital sinus puncture. Blood samples were stored overnight at 4° C. Serum samples were collected by centrifuging the samples at 4000 rpm for 15 minutes at 4° C. Immediately the serum samples were analysed for TNF-α levels using commercially available mouse TNF-α ELISA kit (Amersham Biosciences) and assay was performed by the manufacturer instruction.
ED50 Measurement of TNF alpha Inhibition in Mice Sepsis Model

Data set [10] concerns Male Balbc mice. Put plainly: IBD-DSS model (DSS induced colitis). It counts as in vivo. The note with it: Day 1 to 6, mice. The procedure:
Inhibitory Activity in IBD-DSS Model
DSS Induced colitis test was performed as described by Axelsson et al., 1998. Male Balbc mice were selected in the age of 7-8 weeks for the study. Colitis in mice was induced by providing DSS (2%) in the drinking water from day 1 to 6. Mice were dosed from Day 1 to 6 with test compound suspended in vehicle containing 0.25% carboxymethyl cellulose and 0.5% Tween 80. The control animals received vehicle alone. Body weight and disease activity index was recorded daily during the experiment. After 6 days of treatment, animals were sacrificed; colon weight and colon length was recorded.

The test system of data set [11] is Female Balb C. Put plainly: Psoriasis model (oxazolone induced dermatitis in mice). Type of data set: in vivo. The settings on record: topical on the ear, 24 hours after oxazolone. The procedure: Inhibitory Activity in Psoriasis Model
Oxazolone induced dermatitis in mice was performed as described in the literature. Female Balb C were selected in the age of 6-7 weeks for the study and 20-25 g. Mice were sensitized with oxazolone (15%) from Day 1 to day 6 by applying it on the shaved abdomen. Elicitation was done with oxazolone (2%) on the ear on day 7. Test compounds were applied topically on the ear 15 minutes and 6 hours post oxazolone application on day 7. 24 hours after oxazolone application, ear thickness is measured and ear were excised under anesthesia and weighed.

Data set [12] concerns IL-6. As to the kind of experiment: In vitro measurement of IL-6 in human PBMC (LPS stimulated). It counts as cell-based. The settings on record: 10 μM, read-out: IL-6 Inhibition (%) Conc. (10 μM). The protocol: In Vitro Measurement of Interleukin-6(IL-6)
This assay determins the effect of test compounds on the production of IL-6 in human PBMC (Physiol. Res. 52: 593-598, 2003). Compounds were tested for their ability to inhibit the activity of IL-6 in human PBMC. PBMC were isolated from blood using BD Vacutainer CPT™ Cell preparation tube (BD Bio Science) and suspended in RPMI medium. The test compounds were pre-incubated with PBMC (0.5 million/incubation well) for 15 minutes at 37° C. and then stimulated with Lipopolysaccharide (Escherichia coli: B4; 1 μg/ml) for 18 hours at 37° C. in 5% CO2. The levels of IL-6 in cell culture medium were estimated using enzyme-linked immunosorbent assay performed in a 96 well format as per the procedure of the manufacturer (Cayman Chemical, Ann Arbor, USA).

Data set [13] has as its system IL-12. As to the kind of experiment: IL-12 inhibition. It counts as cell-based.

For `CNS(=O)(=O)c1ccc(-c2c(N)nc(C(F)(F)F)nc2-c2ccc(S(C)(=O)=O)cc2)cc1` [Example 2, 4-{4-Amino-6-[4-(methylsulfonyl)phenyl]-2-(trifluoromethyl)pyrimidin-5-yl}-N-methylbenzenesulfonamide], the results for the inhibition at 1 µM in data set [1] (1 μM) and in data set [2] (1 μM) were 33.8% and 17.3%, respectively. Further, the inhibition at 10 µM in data set [1] (10 μM) was 50.4%; in data set [2] (10 μM), 48.9%. The GI50 in data set [3] worked out at 3.5 µM; in data set [4] it was 2.5 µM; in [5], 8.5 µM.

For `CNc1nc(C(F)(F)F)nc(-c2ccc(S(C)(=O)=O)cc2)c1-c1ccc(S(=O)(=O)NC)cc1` [Example 5, 4-{4-(Methylamino)-6-[4-(methylsulfonyl)phenyl]-2-(trifluoromethyl)pyrimidin-5-yl}-N-methylbenzenesulfonamide], in data set [6], the inhibition at 1 µM is 35.9% and the inhibition at 10 µM is 56.3%. For the same compound, the “Inhibition of edema (%) at 5 mg/kg” value in [7] is recorded as 14.5%. Further, in data set [8], the “Ulcer incidence at 5 mg/kg” value is on record as “Nil”.

`CS(=O)(=O)c1ccc(-c2nc(C(F)(F)F)nc(N3CCN(C(=O)c4ccc([N+](=O)[O-])o4)CC3)c2-c2ccccc2)cc1` [Example 38, 6-[4-(Methylsulfonyl)phenyl]-4-[4-(5-nitro-2-furoyl)piperazin-1-yl]-5-phenyl-2-(trifluoromethyl)pyrimidine]: the GI50 was 4 µM in [3], 6 µM in data set [4] and 3.75 µM in data set [5].

`NS(=O)(=O)c1cccc(-c2c(-c3ccc(F)cc3)nc(C(F)(F)F)nc2-n2ccnc2)c1` [Example 80, 3-[4-(4-Fluorophenyl)-6-(1H-imidazol-1-yl)-2-(trifluoromethyl)pyrimidin-5-yl]benzenesulfonamide]: in data set [6], the inhibition at 1 µM is 30% and the inhibition at 10 µM came to 75.3%. This compound displayed a median effective dose (ED50) in [9] of 2.13 mg/kg. Besides, the “IBD-DSS Model % Inhibition of DAI at 50 mg/kg” value in data set [10] is 35.94%. Also, in data set [11], the “Psoriasis-acute-Oxazolone induced dermatitis % inhibition Ear Thick” value is 19.2% and the “Psoriasis-acute-Oxazolone induced dermatitis % inhibition Ear Wt” value came out at 18.9%.

`CS(=O)(=O)c1ccc(-c2nc(C(F)(F)F)nc(N3CCN(S(=O)(=O)c4ccc(F)cc4Cl)CC3)c2-c2ccccc2)cc1` [Example 157, 4-{4-[(2-Chloro-4-fluorophenyl)sulfonyl]piperazin-1-yl}-6-(4-methylsulfonylphenyl)-5-phenyl-2-(trifluoromethyl)pyrimidine]: the inhibition at 1 µM in data set [6] came out at 33.5%; in data set [13] (read-out: IL-12 Inhibition (%) Conc. (1 μM)), 69%. Further, the inhibition at 10 µM in data set [6] amounted to 91.3%; in [12], 65.7%; in data set [13] (read-out: IL-12 Inhibition (%) Conc. (10 μM)), 98.3%.
